Data reported in BindingDB's records for doi:10.1021/jm5002502 (St. John'S University, 2014).

Biological target: Poly [ADP-ribose] polymerase 1 (Homo sapiens, UniProt P09874)
Assay: Inhibition of PARP-1 (unknown origin) using biotinylated NAD+ as substrate after 60 mins by spectrophotometry

Poly [ADP-ribose] polymerase 1, sequence (P09874 whole entry): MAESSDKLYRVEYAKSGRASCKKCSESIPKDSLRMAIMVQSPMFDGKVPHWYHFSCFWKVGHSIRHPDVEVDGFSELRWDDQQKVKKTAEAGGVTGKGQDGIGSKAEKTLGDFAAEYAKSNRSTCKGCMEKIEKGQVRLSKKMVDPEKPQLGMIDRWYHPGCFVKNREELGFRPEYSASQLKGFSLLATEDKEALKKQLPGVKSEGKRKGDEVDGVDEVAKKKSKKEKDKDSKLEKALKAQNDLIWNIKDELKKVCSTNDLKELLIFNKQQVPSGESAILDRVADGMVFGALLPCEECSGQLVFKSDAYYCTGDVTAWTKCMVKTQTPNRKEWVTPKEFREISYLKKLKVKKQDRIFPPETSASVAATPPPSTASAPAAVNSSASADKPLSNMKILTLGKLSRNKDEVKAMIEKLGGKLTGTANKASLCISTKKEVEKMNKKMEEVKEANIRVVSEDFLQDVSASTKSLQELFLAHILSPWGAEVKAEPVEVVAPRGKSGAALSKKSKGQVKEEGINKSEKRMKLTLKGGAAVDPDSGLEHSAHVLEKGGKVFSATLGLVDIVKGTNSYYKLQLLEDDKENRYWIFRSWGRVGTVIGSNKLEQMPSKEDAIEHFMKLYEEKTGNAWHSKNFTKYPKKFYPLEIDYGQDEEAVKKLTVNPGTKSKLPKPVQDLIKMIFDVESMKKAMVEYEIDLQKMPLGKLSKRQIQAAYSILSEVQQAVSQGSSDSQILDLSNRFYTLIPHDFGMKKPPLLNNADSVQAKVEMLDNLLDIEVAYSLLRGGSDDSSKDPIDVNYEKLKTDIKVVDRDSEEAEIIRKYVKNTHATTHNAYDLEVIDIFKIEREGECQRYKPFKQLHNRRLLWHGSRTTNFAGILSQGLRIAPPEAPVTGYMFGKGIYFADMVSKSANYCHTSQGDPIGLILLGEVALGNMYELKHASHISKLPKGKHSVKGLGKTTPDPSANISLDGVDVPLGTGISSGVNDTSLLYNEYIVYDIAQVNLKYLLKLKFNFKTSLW

## CC1Cc2c(N)ccc(C(N)=O)c2O1 (stereo unspecified)
  IC50: 4.65 µM
